Test results: US20090036387A1, “NOVEL CHEMICAL ENTITIES AFFECTING NEUROBLASTOMA TUMOR-INITIATING CELLS” (The Hospital for Sick Children, priority 2005, published 2009)
Where a name gives a salt, the structure may show the parent alone.

What follows are compounds tested on NB12 tumor-initiating cells (assay: IC50 determination, Alamar Blue cell survival/growth assay). Conditions: Homo sapiens, read-out: NB12 IC50 (nM).
Type: cell-based, human
Procedure: FIG. 4A-4E, according to one embodiment of the invention, presents the IC50 values that were determined for the 64 selected candidate compounds. […] Tumor-initiating cells and normal cells were treated with 10 serial dilutions of compounds (5 μM to 9 nM). […] (FS90=normal cells; NB12=tumor-initiating cells).
FIG. 6A-6FF, according to one embodiment of the invention, presents IC50 values for 32 selected compounds from the LOPAC and Prestwick collections. Tumor-initiating cells (NB12) and normal cells (FS90) were treated with 10 serial dilutions of compounds ranging from 5 μM to 9 nM. Cell survival/growth was assayed using Alamar Blue and the percentage of control Alamar Blue signal was plotted versus log[compound] nM. IC50 values for NB12 are given above each plot.
FIG. 7A-7FF, according to one embodiment of the invention, represents IC50 values determined for 32 selected compounds from the LOPAC, Prestwick, and Spectrum collections. Tumor-initiating cells (NB12) and normal cells (FS90) were treated with 10 serial dilutions of compounds ranging from 5 μM to 9 nM. Cell survival/growth was assayed using Alamar Blue and the percentage of control Alamar Blue signal was plotted versus log[compound] nM (FS90 in dashed line, NB12 in bolded line). IC50 values for NB12 and FS90 are given beside each plot.
To identify compounds that suppress the growth and survival of neuroblastoma (NB) tumor-initiating cells and not nontransformed normal cells (SKPs), a cell-based assay was established and used in which NB tumor-initiating cells from a multiple relapse NB patient (NB12, passage 6-17) and normal SKPs (FS90, passage 2-5) were tested in parallel to detect specific alterations of cell viability/proliferation. For each cell type, cells were passaged 5 days prior to screening. Three thousand (3000) cells in 100 µL SKPs growth media (B27, bFGF, EGF, P/S, fungizone in DMEM:F12 with 50% hFS conditioned media) were robotically plated in uncoated 96 well plates and treated with test compound for 30 hours, prior to a 24 hour incubation in the presence of Alamar Blue and subsequent fluorometric reading.
Thirty-two (32) compounds were selected for IC50 determinations using FS90, FS105, and NB12. IC50 for the remaining compounds of interest will be tested at a later date (in combination with hits from additional libraries).

Compound | IC50 [nM]
C[C@H]1O[C@@H](O[C@H]2[C@@H](O)C[C@H](O[C@H]3[C@@H](O)C[C@H](O[C@H]4CC[C@@]5(C)[C@H](CC[C@@H]6[C@@H]5C[C@@H](O)[C@]5(C)[C@@H](C7=CC(=O)OC7)CC[C@]65O)C4)O[C@@H]3C)O[C@@H]2C)C[C@H](O)[C@@H]1O [Digoxin] | 542
C[n+]1cc2c3c(ccc2c2ccc4cc5c(cc4c21)OCO5)OCO3 [Sanguinarine chloride] | 1800

Same assay, conditions: Homo sapiens; NB12; 10 serial dilutions 5 μM to 9 nM; Alamar Blue; read-out: NB12 IC50

Compound | IC50 [nM]
CC[C@@]1(O)C[C@H](O[C@H]2C[C@H](N(C)C)[C@H](O)[C@H](C)O2)c2c(cc3c(c2O)C(=O)c2c(O)cccc2C3=O)[C@H]1C(=O)OC [AKLAVINE HYDROCHLORIDE] | 778
COc1cc(NS(C)(=O)=O)ccc1Nc1c2ccccc2nc2ccccc12 [AMSACRINE HYDROCHLORIDE] | 1210
CCN(CC)Cc1cc(Nc2ccnc3cc(Cl)ccc23)ccc1O [Amodiaquin dihydrochloride dihydrate] | 790
N=c1ccn2c(n1)O[C@H]1[C@H](O)[C@@H](CO)O[C@H]12 [Ancitabine hydrochloride] | 520
Cc1cc(C2CCCCC2)n(O)c(=O)c1 [CICLOPIROX OLAMINE] | 2050
C[C@@H]1O[C@@H](O[C@H]2CC[C@]3(C=O)[C@H]4CC[C@]5(C)[C@@H](C6=CC(=O)OC6)CC[C@]5(O)[C@@H]4CC[C@]3(O)C2)[C@H](O)[C@H](O)[C@H]1O [CONVALLATOXIN] | 73.2
C=C1C(=O)O[C@H]2C[C@@H]1C(OC(C)=O)C/C(C)=C/CC/C(C)=C/CC[C@@]2(C)O (some centres unmarked) [CRASSIN ACETATE] | 1950
COc1ccc2c(c[n+](C)c3c4cc5c(cc4ccc23)OCO5)c1OC [Chelerythrine chloride] | 2550
CC(C)/N=c1\cc2n(-c3ccc(Cl)cc3)c3ccccc3nc-2cc1Nc1ccc(Cl)cc1 [Clofazimine] | 1420
CC(C)=CCCC1(C)C=Cc2c(O)c3c(c(CC=C(C)C)c2O1)OC12C(=CC4CC1C(C)(C)OC2(C/C=C(/C)C(=O)O)C4O)C3=O (centres unmarked) [DIHYD[…]] | 1690
Cc1cc(N)c2ccccc2[n+]1CCCCCCCCCC[n+]1c(C)cc(N)c2ccccc21 [Dequalinium dichloride] | 3620
CS(=O)(=O)CCCCN=C=S [ERYSOLIN] | 3280
COc1cc([C@@H]2c3cc4c(cc3[C@@H](O[C@@H]3O[C@@H]5CO[C@@H](C)O[C@H]5[C@H](O)[C@H]3O)[C@H]3COC(=O)[C@H]23)OCO4)cc(OC)c1O [Etoposide] | 694
CC(C)=CCC[C@]1(C)C=Cc2c(O)c3c(c(CC=C(C)C)c2O1)O[C@]12C(=C[C@@H]4C[C@H]1C(C)(C)O[C@@]2(C/C=C(/C)C(=O)O)C4=O)C3=O [GAMBOGIC ACID] | 1700
CC(=O)[C@]1(O)Cc2c(O)c3c(c(O)c2[C@@H](O[C@H]2C[C@H](N)[C@H](O)[C@H](C)O2)C1)C(=O)c1ccccc1C3=O [Idarubicin] | 204
Cc1cccc(CN2CCN(C(c3ccccc3)c3ccc(Cl)cc3)CC2)c1 (centres unmarked) [MECLIZINE HYDROCHLORIDE] | 2540
CC[N+](CC)(CC)CCOc1ccc(/C=C/c2ccccc2)cc1 [MG 624] | 848
O=C1c2c(O)ccc(O)c2C(=O)c2c(NCCNCCO)ccc(NCCNCCO)c21 [MITOXANTHRONE HYDROCHLORIDE] | 60.5
C[C@@H]1O[C@@H](O[C@H]2C[C@@H](O)[C@]3(CO)[C@H]4[C@H](O)C[C@]5(C)[C@@H](C6=CC(=O)OC6)CC[C@]5(O)[C@@H]4CC[C@]3(O)C2)[C@H](O)[C@H](O)[C@H]1O [Ouabain] | 123
CO[C@H]1C[C@H](O[C@H]2CC[C@]3(C)[C@H]4CC[C@]5(C)[C@@H](C6=CC(=O)OC6)CC[C@]5(O)[C@@H]4CC[C@]3(O)C2)O[C@H](C)[C@H]1O [PERIPLOCYMARIN] | 2700
CO[C@H]1[C@H](O)[C@H](O[C@H]2CC[C@@]3(C=O)[C@H](CC[C@@H]4[C@@H]3CC[C@]3(C)[C@@H](C5=CC(=O)OC5)CC[C@]43O)C2)O[C@@H](C)[C@@H]1O [PERUVOSIDE] | 222
COc1cc([C@@H]2c3cc4c(cc3[C@H](O)[C@H]3COC(=O)[C@H]23)OCO4)cc(OC)c1OC [Podophyllotoxin] | 135
CCN(CC)CCCC(C)Nc1c2ccc(Cl)cc2nc2ccc(OC)cc12 (centres unmarked) [Quinacrine dihydrochloride] | 2560
COc1cc([C@@H]2c3cc4c(cc3[C@@H](O[C@@H]3O[C@@H]5CO[C@@H](c6cccs6)O[C@H]5[C@H](O)[C@H]3O)[C@H]3COC(=O)[C@H]23)OCO4)cc(OC)c1O [TENIPOSIDE] | 706
CC[C@]1(O)C[C@H]2CN(CCc3c([nH]c4ccccc34)[C@@](C(=O)OC)(c3cc4c(cc3OC)N(C=O)[C@H]3[C@@](O)(C(=O)OC)[C@H](OC(C)=O)[C@]5(CC)C=CCN6CC[C@]43[C@@H]65)C2)C1 [Vincristine sulfate] | 62

Same assay, conditions: NB12; 10 serial dilutions 5 μM to 9 nM; Alamar Blue; read-out: NB12 IC50

Compound | IC50 [nM]
Nc1nc(O)c2[nH]nnc2n1 [Azaguanine-8] | 331
CC(C)CCC[C@@H](C)[C@H]1CC[C@H]2[C@@H]3C[C@@H](O)[C@@]4(O)C[C@@H](O)CC[C@]4(C)[C@H]3CC[C@]12C [CHOLESTAN-3beta.5alpha.6beta-TRIOL] | 2410
CO[C@H]1C=C[C@@]23c4cc5c(cc4CN(C[C@@H]2O)[C@H]3C1)OCO5 [CRINAMINE] | 1740
CC[C@@]1(O)C(=O)OCc2c1cc1n(c2=O)Cc2cc3ccccc3nc2-1 [Camptothecine (S.+)] | 183
C[C@@H]1O[C@@H](O[C@H]2C[C@@H](O)[C@]3(CO)[C@H]4[C@H](O)C[C@]5(C)[C@@H]([C@@H]6COC(=O)C6)CC[C@]5(O)[C@@H]4CC[C@]3(O)C2)[C@H](O)[C@H](O)[C@H]1O [Dihydroouabain] | 1540
COc1cc([C@@H]2c3cc4c(c(O)c3C[C@H]3COC(=O)[C@@H]32)OCO4)cc(OC)c1OC [beta-PELTATIN] | 1950
Dequalinium analog. C-14 linker | 1110
Vinblastine sulfate salt | 113
